Experimental data reported in publication PMC8632988, “Inhibition of SYK and cSrc kinases can protect bone and cartilage in preclinical models of osteoarthritis and rheumatoid arthritis” (Scientific Reports, 2021).
Where “and” joins values, the source holds several entries; their conditions need not be identical. Identical values can stand only once.

Test system: DBA/1 mice, CIA model
Assay: Collagen-induced arthritis model in mice
Type: in vivo, mouse
Set-up: Total AUC Sum (d1-11) / Total AUC Sum (d1-11), Mean: scale not given here
Settings: MTX 1.5 mg/kg PO; for Summed Prophylactic (Non-Enrollment) Paw Score / Total AUC Sum (d1-11), Prophylactic (Non-Enrollment) Paw Score: QD
Method: Collagen-induced arthritis (CIA) model was performed at Bolder BioPATH, USA. Study design and animal usage was approved by Bolder BioPATH’s Institutional Animal Care and Use Committee. CIA was induced in 6–7 week old male DBA/1 mice with body weight of 15–26 g (Harlan, Inc) by intradermal injection of Freund’s Complete Adjuvant (Difco) containing bovine type II collagen (Bolder BioPATH) on day 0 and again on day 21 according to the standard protocol. […] After that mice were randomized into six groups: a control group of four, vehicle group and four treatment groups of ten mice each. […] Each paw was scored daily for inflammation. Therapeutic and prophylactic paws were considered. At study termination mice were euthanized by CO2 inhalation followed by cervical dislocation. Fore paws, hind paws, and knees were removed for microscopy.
Mice were weighed on arthritis days 1, 3, 5, 7, 9, and 11 (prior to necropsy). Daily clinical scores were given for each of the paws (right front, left front, right rear, left rear) on days 1–11 using the following criteria:
After 1–2 days in fixative and 4–5 days in 5% formic acid for decalcification, tissues were trimmed, processed for paraffin embedding, sectioned at 8 µm and stained with toluidine blue. Hind paws and knees were embedded and sectioned in the frontal plane. Two joints from each animal were processed for histopathology evaluation. The joints were then scored by two independent readers as indicated below. When scoring, severity of changes as well as number of individual joints affected were considered. When only 1–3 joints of the paws or ankles out of a possibility of numerous metacarpal/metatarsal/digit or tarsal/tibiotarsal joints were affected, an arbitrary assignment of a maximum score of 1, 2 or 3 for parameters below was given depending on severity of changes. If more than 3 joints were involved, the criteria below were applied to the most severely affected/majority of joints.

[1] = all joints, QD (Group 3), group mean
[2] = all joints, QD (Group 3), individual animals

## CN(Cc1cnc2nc(N)nc(N)c2n1)c1ccc(C(=O)N[C@@H](CCC(=O)O)C(=O)O)cc1 [MTX, methotrexate, reference compound]
Day 11, group mean
  Summed Prophylactic (Non-Enrollment) Paw Score: 7.40
Day 11, individual animals
  Summed Prophylactic (Non-Enrollment) Paw Score: 6 and 5 and 4 and 14 and 10 and 8
Group mean
  Total AUC Sum (d1-11), Prophylactic (Non-Enrollment) Paw Score: 52.20
Individual animals
  Total AUC Sum (d1-11), Prophylactic (Non-Enrollment) Paw Score: 41.0 and 33.5 and 35.0 and 16.0 and 80.0 and 101.0 and 88.0 and 58.0 and 34.5
All joints, QD (Group 3)
  % inhibition, Bone Resorption score: 8%
  % inhibition, Cartilage Damage score: 3%
  % inhibition, Inflammation score: 4%
  % inhibition, Pannus score: 8%
  % inhibition, Periosteal Bone Formation score: 3%
  % inhibition, Periosteal Bone Width: 6%
  % inhibition, Summed Scores: 5%
[1]
  Histopathology Scores Bone Resorption, Mean: 1.58
  Histopathology Scores Cartilage Damage, Mean: 3.21
  Histopathology Scores Inflammation, Mean: 3.55
  Histopathology Scores Pannus, Mean: 1.58
  Histopathology Scores Periosteal Bone Formation, Mean: 1.10
  Histopathology Scores Summed Scores, Mean: 11.03
  Periosteal Bone Width (40*25x measure), Mean: 92.67 μm
[2]
  Histopathology Scores Bone Resorption: 1.17 and 1.67 and 1.08 and 1.00 and 2.33 and 1.58 and 1.25 and 1.83 and 2.25
  Histopathology Scores Cartilage Damage: 1.92 and 3.00 and 1.67 and 2.17 and 4.17 and 4.33 and 3.83 and 3.17 and 4.83
  Histopathology Scores Inflammation: 2.33 and 3.08 and 2.50 and 2.25 and 4.67 and 4.83 and 4.00 and 3.33 and 3.83
  Histopathology Scores Pannus: 1.17 and 1.67 and 1.08 and 1.00 and 2.33 and 1.58 and 1.25 and 1.83 and 2.25
  Histopathology Scores Periosteal Bone Formation: 0.83 and 1.33 and 0.50 and 1.17 and 1.50
  Histopathology Scores Summed Scores: 7.42 and 10.75 and 6.83 and 7.25 and 13.33 and 15.33 and 12.17 and 9.67 and 12.00 and 15.50
  Periosteal Bone Width (40*25x measure): 80.00 μm and 106.67 μm and 40.00 μm and 140.00 μm and 86.67 μm and 60.00 μm and 146.67 μm
therapeutic/enrollment paw score, QD (Group 3)
  % inhibition to Vehicle, Total AUC Sum (d1-11): 3%
therapeutic/enrollment paw score, QD (Group 3), group mean
  Total AUC Sum (d1-11), Mean: 61.65
therapeutic/enrollment paw score, QD (Group 3), individual animals
  Total AUC Sum (d1-11): 43 and 36 and 65 and 75 and 130 and 82 and 38 and 78
therapeutic/enrollment paws, Day 1, QD (Group 3)
  % inhibition to Vehicle, paw score Day 1: 0%
therapeutic/enrollment paws, Day 1, QD (Group 3), group mean
  Summed Therapeutic (Enrollment) Paw Score Day 1, Mean: 3.20
therapeutic/enrollment paws, Day 1, QD (Group 3), individual animals
  Summed Therapeutic (Enrollment) Paw Score Day 1: 2 and 4 and 6
therapeutic/enrollment paws, Day 2, QD (Group 3)
  % inhibition to Vehicle, paw score Day 2: 9%
therapeutic/enrollment paws, Day 2, QD (Group 3), group mean
  Summed Therapeutic (Enrollment) Paw Score Day 2, Mean: 4.30
therapeutic/enrollment paws, Day 2, QD (Group 3), individual animals
  Summed Therapeutic (Enrollment) Paw Score Day 2: 3 and 2 and 5 and 6 and 8
therapeutic/enrollment paws, Day 3, QD (Group 3)
  % inhibition to Vehicle, paw score Day 3: 12%
therapeutic/enrollment paws, Day 3, QD (Group 3), group mean
  Summed Therapeutic (Enrollment) Paw Score Day 3, Mean: 5.20
therapeutic/enrollment paws, Day 3, QD (Group 3), individual animals
  Summed Therapeutic (Enrollment) Paw Score Day 3: 4 and 3 and 5 and 7 and 9
therapeutic/enrollment paws, Day 4, QD (Group 3)
  % inhibition to Vehicle, paw score Day 4: −2%
therapeutic/enrollment paws, Day 4, QD (Group 3), group mean
  Summed Therapeutic (Enrollment) Paw Score Day 4, Mean: 6.30
therapeutic/enrollment paws, Day 4, QD (Group 3), individual animals
  Summed Therapeutic (Enrollment) Paw Score Day 4: 4 and 3 and 7 and 8 and 12 and 9
therapeutic/enrollment paws, Day 5, QD (Group 3)
  % inhibition to Vehicle, paw score Day 5: −2%
therapeutic/enrollment paws, Day 5, QD (Group 3), group mean
  Summed Therapeutic (Enrollment) Paw Score Day 5, Mean: 6.70
therapeutic/enrollment paws, Day 5, QD (Group 3), individual animals
  Summed Therapeutic (Enrollment) Paw Score Day 5: 4 and 7 and 8 and 15 and 9
therapeutic/enrollment paws, Day 6, QD (Group 3)
  % inhibition to Vehicle, paw score Day 6: −2%
therapeutic/enrollment paws, Day 6, QD (Group 3), group mean
  Summed Therapeutic (Enrollment) Paw Score Day 6, Mean: 6.70
therapeutic/enrollment paws, Day 6, QD (Group 3), individual animals
  Summed Therapeutic (Enrollment) Paw Score Day 6: 4 and 7 and 8 and 15 and 9
therapeutic/enrollment paws, Day 7, QD (Group 3)
  % inhibition to Vehicle, paw score Day 7: 0%
therapeutic/enrollment paws, Day 7, QD (Group 3), group mean
  Summed Therapeutic (Enrollment) Paw Score Day 7, Mean: 6.80
therapeutic/enrollment paws, Day 7, QD (Group 3), individual animals
  Summed Therapeutic (Enrollment) Paw Score Day 7: 5 and 4 and 7 and 8 and 15 and 9
therapeutic/enrollment paws, Day 8, QD (Group 3)
  % inhibition to Vehicle, paw score Day 8: 3%
therapeutic/enrollment paws, Day 8, QD (Group 3), group mean
  Summed Therapeutic (Enrollment) Paw Score Day 8, Mean: 6.80
therapeutic/enrollment paws, Day 8, QD (Group 3), individual animals
  Summed Therapeutic (Enrollment) Paw Score Day 8: 5 and 4 and 7 and 8 and 15 and 9
therapeutic/enrollment paws, Day 9, QD (Group 3)
  % inhibition to Vehicle, paw score Day 9: 5%
therapeutic/enrollment paws, Day 9, QD (Group 3), group mean
  Summed Therapeutic (Enrollment) Paw Score Day 9, Mean: 6.90
therapeutic/enrollment paws, Day 9, QD (Group 3), individual animals
  Summed Therapeutic (Enrollment) Paw Score Day 9: 5 and 4 and 7 and 8 and 15 and 9
therapeutic/enrollment paws, Day 10, QD (Group 3)
  % inhibition to Vehicle, paw score Day 10: 7%
therapeutic/enrollment paws, Day 10, QD (Group 3), group mean
  Summed Therapeutic (Enrollment) Paw Score Day 10, Mean: 6.90
therapeutic/enrollment paws, Day 10, QD (Group 3), individual animals
  Summed Therapeutic (Enrollment) Paw Score Day 10: 5 and 4 and 7 and 8 and 15 and 9
therapeutic/enrollment paws, Day 11, QD (Group 3)
  % inhibition to Vehicle, paw score Day 11: 7%
therapeutic/enrollment paws, Day 11, QD (Group 3), group mean
  Summed Therapeutic (Enrollment) Paw Score Day 11, Mean: 6.90
therapeutic/enrollment paws, Day 11, QD (Group 3), individual animals
  Summed Therapeutic (Enrollment) Paw Score Day 11: 5 and 4 and 7 and 8 and 15 and 9
